Experimental data reported in patent publication US11969428B2, “Methods and pharmaceutical compositions for treating lymphoid malignancy” (priority 2011, dated 2024).

Columns and labels:
Akt/PKB phosphorylation = experiment: TCR-induced Akt/PKB phosphorylation in thymocytes (Western blot); format: cell-based, mouse; settings: thymocytes from 6 week old wild type animals
Protocol: Cell lysates (from cell lines or thymocytes) were prepared on ice in M-PER Mammalian Protein Extraction reagent (Pierce) containing a cocktail of protease and phosphatase inhibitors (Swat et al., 2006). Equal amounts of total protein from lysates were subjected to SDS-PAGE, transferred to PVDF membrane (Immobilon-P, Millipore), and membranes probed by overnight incubation with appropriate primary antibodies. Bound antibodies were visualized with HRP-conjugated secondary antibodies and ECL chemistry (SuperPico West, Pierce).
To assess the requirement for p110δ in TCR-induced phosphorylation of Akt/PBK, single-cell suspensions of thymocytes (1×10^8/mL) from PI3Kγ-deficient animals were incubated with the p110δ-specific inhibitor IC87114 (10 μM) or with vehicle control (DMSO) for 30 minutes before TCR cross-linking, as described for the Ca^2+ flux assay. Aliquots (100 μL) were collected at 0, 10, 30, and 60 minutes after TCR cross-linking, briefly centrifuged to pellet, and subsequently lysed with ice-cold M-Per (Pierce, Rockford, IL) (according to the manufacturer's recommendations) that contained a cocktail of phosphatase and protease inhibitors (Puri et al., 2005). Lysates were clarified by centrifugation (12,000 g for 15 minutes at 4° C.), and total and phosphorylated Akt/PBK were determined by Western blot analysis.

Ca2+ flux in thymocytes = experiment: Calcium flux assay after TCR cross-linking; format: cell-based, mouse; settings: wild type thymocytes; to levels of Pik3cg−/−;pik3cd−/− counterparts
Protocol: Thymocytes or lymphocytes were preloaded with Fluo-4 AM (Molecular Probes, Eugene, OR) at 5 μg/mL for 30 minutes at 37° C., labeled with anti-CD4-APC conjugate (BD Biosciences) to permit gating on this T-cell subset during analysis, and finally washed and resuspended (2×10^6/mL) in DMEM and 10% FCS. After a baseline was established at quiescence, Ca^2+ flux was induced by the addition in tandem of anti-CD3e (hamster antimouse antibody; BD Biosciences) and the anti-hamster IgG polyclonal antibody (Jackson ImmunoResearch, West Grove, PA) for cross-linking. The resultant flux in Ca^2+ was measured for 5 minutes by flow cytometry, and total flux was established by the addition of ionomycin (0.5 μg/mL). Drug inhibition of Ca^2+ flux was measured after 30 minute pre-incubation with CAL-130 at room temperature of dye loaded cells. Percentage overall change in Ca^2+ flux is reported as (Ca^2+ fluxpeak−Ca^2+ fluxbaseline/Ca^2+fluxionomycin−Ca^2+fluxbaseline)×100.

platelets = experiment: ADP-induced platelet aggregation; format: cell-based, mouse; settings: platelets from p110γ/δ double knockout mice 2 hours post administration of CAL-130 (10 mg kg−1)
Protocol: Blood was obtained from anesthetized p110δ/γ double knockout mice via cardiac puncture. Platelets were purified from PRP by centrifugation and resuspended to a final concentration of […] in buffer (145 mM NaCl, 10 mM Hepes, 0.5 mM Na2HPO4, 5 mM KCl, 2 mM MgCl2, 1 mM CaCl2, 0.1% glucose, pH 7.4). CAL-130 (1 μM, 2.5 μM, or 5 μM final concentration) or DMSO was added to platelet suspensions 5 minutes prior to inducing aggregation with ADP (25 μM). Mouse fibrinogen (final concentration 200 μg/ml) was also added to the platelet suspensions just prior to activation as previously described (Magallon et al., 2011). Aggregation was assessed using a Chronolog Lumi-Aggregometer (model 540 VS, Chronolog, Havertown, PA). In some experiments, blood was collected 2 hours after administering a single dose of CAL-130 (10 mg kg^−1) or vehicle control and ADP-induced aggregation evaluated.

thymocytes = experiment: Effect on thymi of 6 week old mice treated 7 days; format: in vivo, mouse; settings: 10 mg kg−1 every 8 hours for 7 days
Protocol: Cell counts were measured on a Hemavet 850FS system (CDC Technologies, Oxford, CT), and standard procedures were followed for staining cells with the following antibody conjugates for flow cytometry (BD Biosciences, San Jose, CA) (Cella et al., 2004): phycoerythrin (PE) anti-CD4 (clone H129.19), fluorescein (FITC), PE, cytochrome c (CyC), or biotin anti-CD8a, FITC CD3c, CyC anti-B220, and Thy 1.2. Biotinylated antibodies were detected with either streptavidin-PE or streptavidin-CyC. Subsets of DN thymocytes were analyzed based on expression of CD25 and CD44 after gating out cells that stained with a cocktail of biotinylated antibodies to CD4, CD8, B220, Mac-1, and Gr-1 followed by streptavidin Cy-Chrome.
To assess the in vivo efficacy of the inhibitor, its effects on thymi of 6 week old mice were determined, specifically for its ability to recapitulate the phenotype observed when both p110γ and p110δ are deficient. Animals received 10 mg kg^−1 of the inhibitor orally, which was sufficient to maintain plasma concentrations of 0.33±0.18 μM at the end of 8 hours (FIG. 16D). […] In particular, there was a 18-fold reduction in total thymocyte number in comparison to controls, which was primarily due to the loss of DP population (FIG. 16H). These observations are consistent with the ability of CAL-130 to preferentially block the function of both PI3Kγ and PI3Kδ.

[1] = tested on: primary human T-ALL tumor cells; experiment: Primary T-ALL cell viability on MS5-DL1 stroma; format: cell-based; settings: primary T-ALL devoid of PTEN; 72 hours
Protocol: Cell proliferation of CCRF-CEM cells or shRNA transfected CCRF-CEM cells, in the presence or absence of appropriate drug, was followed by cell counting of samples in triplicate using a hemocytometer and trypan blue. For apoptosis determinations of untransfected or shRNA transfected CCRF-CEMs, cells were stained with APC-conjugated Annexin-V (BD Biosciences) in Annexin Binding Buffer (Miltyeni Biotec) and analyzed by flow cytometry. For primary T-ALL samples, cell viability was assessed using the BD Cell Viability kit (BD Biosciences) coupled with the use of fluorescent counting beads as previously described (Armstrong et al., 2009). For this, cells were plated with MS5-DL1 stroma cells, and after 72 hours following drug treatment cells were harvested and stained with an APC-conjugated anti-human CD45 followed by a staining with the above kit according to the manufacturer's instructions.

Protocol for PTEN null T-ALL: Mice deficient for PTEN in the T cell lineage were generated by crossing Lck-cre with floxed Pten (Hennet et al., 1995; Trotman et al., 2003).
Mice received an oral dose (10 mg kg^−1) of the inhibitor every 8 hours for a period of 7 days and were then followed until moribund.
Pten^fl/fl mice were crossed with a strain in which a luciferase cDNA, preceded by a LoxP-stop-LoxP cassette, was introduced into the ubiquitously expressed ROSA26 locus (Safran et al., 2003). Progeny were then crossed with Lck-cre transgenics to delete Pten in T cell progenitors and induce expression of luciferase (Lck/Pten^fl/fl; Gt(ROSA)26Sor^tm1(Luc)Kael/J).

Cc1ccccc1-n1c(C(C)Nc2nc(N)nc3nc[nH]c23)nc2cccc(C)c2c1=O (centres unmarked) [CAL-130]
TCR induced Akt phosphorylation (Ser473) (Akt/PKB phosphorylation): prevented
calcium flux in response to TCR cross-linking (Ca2+ flux in thymocytes): attenuated
ADP-mediated platelet aggregation (platelets): no obvious defect
reduction in total thymocyte number in comparison to controls (thymocytes): 18 fold
tumor cell viability [1]: reduction in tumor cell viability
weights of thymi, liver, spleen, and kidneys versus vehicle control (PTEN null T-ALL; 7 days treatment): significantly less
median survival (PTEN null T-ALL; Lck/Pten fl/fl mice with T-ALL, oral 10 mg kg−1 every 8 hours for 7 days): 45 days
WBC (PTEN null T-ALL; Lck/Pten fl/fl mice, by day 4): dramatic reduction
apoptosis (sub-G0 population after PI staining) (PTEN null T-ALL; Lck/Pten fl/fl mice, days 4 through 7): increase in apoptosis
bioluminescent signals (PTEN null T-ALL; Lck/Pten fl/fl;Gt(ROSA)26Sor luciferase mice, day 4 of treatment): dramatically lower
peripheral blood T-ALL cells (PTEN null T-ALL; diseased Lck/Pten fl/fl mice, within hours of treatment (data not shown)): dramatic and sustained reduction
